How the values were obtained:
Rhopalosiphum padi = test: Efficacy on aphids on infested wheat seedlings, spray treatment; assay type: in vivo; conditions: sprayed on wheat seedlings
Description: The trial was carried out on wheat infected with aphids.
Rhopalosiphum padi aphids are reared on wheat in the laboratory. The rearing conditions are as follows: 14 hrs in the light at 18° C., and 10 hrs in darkness at 15° C. at a relative humidity (RH) of 60-70%.
“Triticum aestivum” wheat of the Apache variety is grown under the following conditions: 14 hrs in the light at 18° C., and 10 hrs in darkness at 15° C. at a relative humidity (RH) of 60-70%. For the experiments, seedlings having reached stage 12 on the BBCH-scale, i.e. 2 leaves, are chosen.
On D-1, 3 adult aphids are placed on each wheat seedling (approximately 30 seedlings per dose tested). The seedlings are kept for 14 hrs in the light at 18° C., and 10 hrs in darkness at 15° C. at a relative humidity (RH) of 60-70%.
On day D, the seedlings are treated with a composition as described in Example 1.a.). Emulsions containing the following doses of isoamyl laurate were tested: 1.35 L/ha (N/4), 2.7 L/ha (N/2), […] (N), 10.8 L/ha (2N) and 16.2 L/ha (3N). Two controls are carried out: a first control using water and a second control using the adjuvant, tested alone, at a dose of 1.8 L/ha, which corresponds to the dose of adjuvant contained in dose 3N of isoamyl laurate. The volume of composition sprayed corresponds to the equivalent of 200 L/ha.
For the treatment, nozzles are used to spray the different emulsions and to produce a good distribution of the drops over the plants (TeeJet 100015-VS flat spray nozzle used on a Euro-Pulvé laboratory sprayer).
On D+1, D+3, D+7, the adults and larvae present on each seedling are counted.
Statistical analysis is carried out using XLSTATS and a variance analysis is carried out using a Newman-Keuls and a Dunnett's test. The Dunnett's tests used post hoc following an ANOVA give a probability of 0.00.
The seedlings are treated on day D with a composition as described in Example 1.b). An emulsion containing the following dose of 2-ethylhexyl caprate was tested: 16.2 L/ha (3N). […]

[1] = tested on: Pollen beetles Meligethes aeneus, susceptible; test: Efficacy on pollen beetles, coated glass phial, IRAC method no.11, susceptible strains; assay type: in vivo; conditions: after 24 hrs
Description: (§1) The efficacy of isoamyl laurate against pollen beetles has been evaluated according to a protocol based on IRAC (Insecticide Resistance Action Committee) method no.11, version 3, June 2009.
(§2) Pollen beetles are collected from different locations in infested fields. They are then kept in ventilated plastic boxes, in the bottom of which a dry paper has been placed. A number of oilseed rape leaves as well as 2 to 3 oilseed rape in flower are added as a food source. As it is important that the pollen beetles are not subjected to excessive temperatures, to humid conditions or other sources of stress following collection, they are kept under the following conditions: 14 hrs in the light at 18° C., and 10 hrs in darkness at 15° C. at a relative humidity (RH) of 60-70%.
(§3) The isoamyl laurate product was solubilized in acetone. Each solution was then placed in a homogeneous manner on the inside of a glass phial 2 cm in diameter and 4 cm in height, until the acetone has completely evaporated. The quantity of insecticide provided by 0.5 mL of acetone solution is calculated in such a way that a unit of area of the phial is covered with the same quantity of insecticide as that carried by the same unit of area of a leaf belonging to a field having undergone a treatment at 200 L/ha.
(§4) 10 pollen beetles are introduced into each phial, each trial being carried out twice.
(§5) Mortality is evaluated after 24 hrs.

[2] = tested on: Leptinotarsa decemlineata; test: Efficacy on Colorado potato beetle larvae, leaf soaking, IRAC method no.7; assay type: in vivo; conditions: dose 6.0 L/ha, composition 1.a, L4 larvae, mortality after 5 hrs
Description: The efficacy of isoamyl laurate on Colorado potato beetles has been evaluated according to a protocol based on IRAC (Insecticide Resistance Action Committee) method no.7, version 3, June 2009. Eggs from the Colorado potato beetle are collected from fields and placed on the lower (abaxial) surface of potato leaves. After 4 to 15 days, the hatching of the eggs takes place, producing dark red-brown larvae. Potato leaves are treated by soaking for 5 seconds in a composition as described in Example 1.a) at a dose of isoamyl laurate equivalent to 6.0 L/ha. The potato leaves are infested on the abaxial face thereof with 5 Colorado potato beetle larvae at stage L4. Each trial is repeated a second time. Mortality is evaluated after 5 hrs. At a dose of 6.0 L/ha of isoamyl laurate, 10% efficacy is obtained on the Colorado potato beetle larvae.

[3] = tested on: Pollen beetles Meligethes aeneus, strains resistant to pyrethroids; test: Efficacy on pollen beetles, coated glass phial, IRAC method no.11, strains resistant to pyrethroids; assay type: in vivo; conditions: after 24 hrs
Description: as §1, §2, §3, §4, §5

[4] = Trials comparing a concentrate containing isoamyl laurate with a commercial insecticide containing Lambda-cyhalothrin; conditions: concentrate containing isoamyl laurate vs commercial insecticide containing Lambda-cyhalothrin
From the text: Preferably, in the concentrates according to the invention, the insecticide and/or arachnicide compound of formula (I) is 3-methylbutyl dodecanoate (isoamyl laurate).

Ostrinia nubilalis = test: Efficacy on the European corn borer on corn leaves, spray treatment; assay type: in vivo; conditions: dose 6.0 L/ha, composition 1.a, counted on D+3
Description: The test was carried out on corn infected by the European corn borer. Egg clusters from Ostrinia nubilalis are kept under controlled laboratory conditions in order to allow the eggs to develop. The eggs are kept for 14 hrs in the light and at 18° C., and for 10 hrs in the dark at 15° C. at a relative humidity varying from 60 to 70%. After emerging, the larvae at the 1st and 2nd instar stages are used in the experiment. “Zea Mays” corn of the variety DK315 is grown under the following conditions: 14 hrs in the light at 18° C., and 10 hrs in darkness at 15° C. at a relative humidity (RH) of 60-70%. On D-1, 3 corn leaves are taken from the seedlings and placed in ventilated plastic boxes. 10 larvae are then placed onto the corn leaves in each box, the trial being repeated three times. The larvae are kept for 14 hrs in the light at 18° C., and 10 hrs in darkness at 15° C. at a relative humidity (RH) of 60-70%. The leaves are treated on day D with a composition as described in Example 1.a) with a dose of isoamyl laurate equivalent to 6.0 L/ha. For the treatment, nozzles are used to spray the composition in example 1.a) and to produce a good distribution of the drops onto the plants (TeeJet 110015-VS flat spray nozzle used on a Euro-Pulvé laboratory sprayer). […] On D+3, the larvae and adults present in each box are counted. […]

[5] = dose 3N (16.2 L/ha) on D+1, composition with Actirob B adjuvant

SMILES | efficacy (Rhopalosiphum padi; [5]) | Efficacy (%) Susceptible ([1]; dose 2.0 L/ha) | Efficacy (%) Susceptible ([1]; dose 4.0 L/ha) | efficacy (mortality) on larvae [2] | Efficacy (%) Strains resistant to pyrethroids ([3]; dose 2.0 L/ha) | Efficacy (%) Strains resistant to pyrethroids ([3]; dose 4.0 L/ha) | efficacy (Rhopalosiphum padi; dose 3N (16.2 L/ha), composition 1.a with Actirob B adjuvant, FIG. 2) | toxicity (aquatic toxicity, toxicity in humans through inhalation, irritation of the skin and eyes) [4] | efficacy against the larvae and adults (Ostrinia nubilalis)
CCCCCCCCCC(=O)OCC(CC)CCCC (stereo not shown) [2-ethylhexyl caprate] | ~55% |  |  |  |  |  |  |  | 
CCCCCCCCCCCCCCCC(=O)OCC(CC)CCCC (stereo not shown) [2-ethylhexyl palmitate, reference compound] | approximately 10% |  |  |  |  |  |  |  | 
CCCCCCCCCCCC(=O)OCCC(C)C [isoamyl laurate, 3-methylbutyl dodecanoate] |  | 55% | 90% | 10% | 40% | 75% | ~80% | less toxic | 19.5%
